Source: patent US20220175749A1, “LANABECESTAT FOR WEIGHT LOSS” (ASTRAZENECA AB, priority 2019, published 2022)
Marks after values point to notes of the source that are not given here.

Tests used:
Format in all cases: in vivo, human
[1] = Combined analysis of the two studies of Examples 1 and 2: weight change from baseline and weight decrease over time; settings: for mean (SD) kg change from baseline: 52 weeks
Method: A further analysis of the subjects in the two studies described in Examples 1 and 2 above was performed, for which results are provided below.
FIGS. 1-3 show weight change from baseline over the course of the 104 week studies. […] At 52 weeks, the mean (SD) kg change from baseline in the Lanabecestat 50 mg group versus placebo was −1.5 kg (4.4) vs +0.1 kg (3.4).
At 52 weeks, the mean (SD) kg change from baseline in the Lanabecestat 50 mg group versus placebo was −0.65 kg (3.4) vs +0.3 kg (3.3).
Table 10 provides data for the weight decrease over time for the population with a baseline BMI>25 kg/m^2 versus the overall population, showing that there is a greater percent decrease in weight in the higher BMI group versus the overall population.

[2] = Phase 3 study of lanabecestat in mild AD dementia, 78-week placebo-controlled period: effect on weight; settings: for Weight decrease ≥ 7%, (%): placebo 6.3; for mean weight change: completers at week 78, placebo −0.2 kg
Method: A Phase 3, multicenter, randomized, double-blind, global study of lanabecestat in patients with mild AD dementia that included a 78-week placebo-controlled period, for which results are provided below.
Lanabecestat was provided orally once daily for 78 weeks at 20 mg or 50 mg and compared to the results for once daily administration of placebo.
The key inclusion criteria for the study were as follows: • Population aged 55 to 85 years; • Mild AD: meet National Institute on Aging and the Alzheimer's Association (NIA-AA) criteria with a Clinical Dementia Rating Scale-Global Score (CDR-GS) of 0.5 or 1, with memory box score ≥0.5; • Mini-Mental State Examination (MMSE) score 20-26; • Study partner; • Amyloid positive • Cerebrospinal fluid; or • Florbetapir amyloid Positron Emission Tomography (PET); or • Historical amyloid PET.
(§1) The key exclusion criteria for the study were: • Unstable medical conditions or medications; • Magnetic resonance imaging (MRI): >5 microhemorrhages, significant cerebrovascular pathology, or other pathologies; • QT interval adjusted for heart rate using the Fridericia formula (QTcF) >470 ms; • History of vitiligo and/or current evidence of post-inflammatory hypo-pigmentation.
Comparing completers at week 78, the mean weight change was −0.2 kg for placebo (n=24), −1.4 kg for lanabecestat 20 mg (n=27), and −2.9 kg for lanabecestat 50 mg (n=20). The overall p-value and pairwise p-value compared to placebo was ≤0.05 (nominal p-value, not adjusted for multiplicity).

[3] = Phase 2/3 104-week placebo-controlled study of lanabecestat in early Alzheimer's Disease: effect on weight; settings: for Weight decrease ≥ 7%, (%): placebo 12.7; for mean weight change: completers at week 104, placebo 0.0 kg
Description: A Phase 2/3, multicenter, randomized, 104-week, double-blind, placebo-controlled, global study of lanabecestat in patients with early Alzheimer's Disease (AD), defined as the continuum of patients with mild cognitive impairment (MCI) due to AD and patients diagnosed with mild AD dementia.
Lanabecestat, i.e., the camsylate salt of (1r,1′R,4R)-4-methoxy-5″-methyl-6′-[5-(prop-1-yn-1-yl)pyridin-3-yl]-3′H-dispiro[cyclohexane-1,2′-indene-1′,2″-imidazol]-4″-amine
was provided orally once daily for 104 weeks at 20 mg or 50 mg and compared to the results for once daily administration of placebo.
The key inclusion criteria for the study were as follows: • Population aged 55 to 85 years old; • Mild AD: meet National Institute on Aging and the Alzheimer's Association (NIA-AA) criteria with a Clinical Dementia Rating Scale-Global Score (CDR-GS) of 0.5 or 1; • MCI: meet NIA-AA criteria with a CDR-GS of 0.5; • CDR memory box score ≥0.5; • Mini-Mental State Examination (MMSE)≥20; • Repeatable Battery for the Assessment of Neuropsychological Status Delayed Memory Index (RBANS DMI)≤85; • Study partner; • Amyloid positive • Cerebrospinal fluid; or • Florbetapir amyloid Positron Emission Tomography (PET); or • Historical amyloid PET.
as §1, with “were as follows:” for “were:”, “Resonance Imaging” for “resonance imaging”, “hypo-pigmentation or exposure to depigmenting agents.” for “hypo-pigmentation.”
Comparing completers at week 104, the mean weight change was for 0.0 kg for placebo (n=202), −0.8 kg for lanabecestat 20 mg (n=187), and −1.9 kg for lanabecestat 50 mg (n=178). The overall p-value and pairwise p-value compared to placebo was ≤0.05 (nominal p-value, not adjusted for multiplicity).

[4] = week 26, all patients, L20 (20 mg), N=1080
[5] = week 26, all patients, L50 (50 mg), N=1047
[6] = week 26, patients with baseline BMI > 25, L20 (20 mg), N=532
[7] = week 26, patients with baseline BMI > 25, L50 (50 mg), N=494
[8] = week 52, all patients, L20 (20 mg), N=726
[9] = week 52, all patients, L50 (50 mg), N=716
[10] = week 52, patients with baseline BMI > 25, L20 (20 mg), N=348
[11] = week 52, patients with baseline BMI > 25, L50 (50 mg), N=348
[12] = week 78, all patients, L20 (20 mg), N=366
[13] = week 78, all patients, L50 (50 mg), N=347
[14] = week 78, patients with baseline BMI > 25, L20 (20 mg), N=170
[15] = week 78, patients with baseline BMI > 25, L50 (50 mg), N=161
[16] = week 104, all patients, L20 (20 mg), N=187
[17] = week 104, all patients, L50 (50 mg), N=178
[18] = week 104, patients with baseline BMI > 25, L20 (20 mg), N=89
[19] = week 104, patients with baseline BMI > 25, L50 (50 mg), N=77

What does the source list for `CC#Cc1cncc(-c2ccc3c(c2)[C@@]2(N=C(C)C(N)=N2)[C@]2(CC[C@H](OC)CC2)C3)c1` [Lanabecestat, (1r,1′R,4R)-4-methoxy-5″-methyl-6′-[5-(prop-1-yn-1-yl)pyridin-3-yl]-3′H-dispiro[cyclohexane-1,2′-indene-1′,2″-imidazol]-4″-amine]?
weight loss of ≥5% and ≥10% versus placebo ([1]; 50 mg, at 2 years): statistically significant weight loss; mean (SD) kg change from baseline ([1]; baseline BMI>25 kg/m^2, 50 mg, SD 5.2, placebo −0.4 kg (3.6)): -2.5 kg; mean (SD) kg change from baseline ([1]; baseline BMI≤25 kg/m^2, 50 mg, SD 3.4, placebo +0.3 kg (3.3)): -0.65 kg; mean (SD) kg change from baseline ([1]; overall population, 50 mg, SD 4.4, placebo +0.1 kg (3.4)): -1.5 kg; Weight loss ≥5%, % of patients [1, 4]: (14%)***; Weight loss ≥5%, n patients [1, 4]: 147; Weight loss ≥10%, % of patients [1, 4]: 1%; Weight loss ≥10%, n patients [1, 4]: 15; Weight loss ≥15%, % of patients [1, 4]: 0.3%; Weight loss ≥15%, n patients [1, 4]: 3; Weight loss ≥5%, % of patients [1, 5]: (16%)***; Weight loss ≥5%, n patients [1, 5]: 172; Weight loss ≥10%, % of patients [1, 5]: (3%)**; Weight loss ≥10%, n patients [1, 5]: 28; Weight loss ≥15%, % of patients [1, 5]: 0.5%; Weight loss ≥15%, n patients [1, 5]: 5; Weight loss ≥5%, % of patients [1, 6]: (16%)***; Weight loss ≥5%, n patients [1, 6]: 87; Weight loss ≥10%, % of patients [1, 6]: 2%; Weight loss ≥10%, n patients [1, 6]: 11; Weight loss ≥15%, % of patients [1, 6]: 0.6%; Weight loss ≥15%, n patients [1, 6]: 3; Weight loss ≥5%, % of patients [1, 7]: (18%)***; Weight loss ≥5%, n patients [1, 7]: 90; Weight loss ≥10%, % of patients [1, 7]: 4%; Weight loss ≥10%, n patients [1, 7]: 20; Weight loss ≥15%, % of patients [1, 7]: 1%; Weight loss ≥15%, n patients [1, 7]: 3; Weight loss ≥5%, % of patients [1, 8]: (19%)***; Weight loss ≥5%, n patients [1, 8]: 139; Weight loss ≥10%, % of patients [1, 8]: 5%; Weight loss ≥10%, n patients [1, 8]: 35; Weight loss ≥15%, % of patients [1, 8]: 1%; Weight loss ≥15%, n patients [1, 8]: 8; Weight loss ≥5%, % of patients [1, 9]: (25%)***; Weight loss ≥5%, n patients [1, 9]: 180; Weight loss ≥10%, % of patients [1, 9]: (5%)**; Weight loss ≥10%, n patients [1, 9]: 39; Weight loss ≥15%, % of patients [1, 9]: 1%; Weight loss ≥15%, n patients [1, 9]: 8; Weight loss ≥5%, % of patients [1, 10]: (24%)***; Weight loss ≥5%, n patients [1, 10]: 82; Weight loss ≥10%, % of patients [1, 10]: 7%; Weight loss ≥10%, n patients [1, 10]: 26; Weight loss ≥15%, % of patients [1, 10]: 2%; Weight loss ≥15%, n patients [1, 10]: 8; Weight loss ≥5%, n patients [1, 11]: 104; Weight loss ≥10%, % of patients [1, 11]: 7%; Weight loss ≥10%, n patients [1, 11]: 26; Weight loss ≥15%, % of patients [1, 11]: 2%; Weight loss ≥15%, n patients [1, 11]: 6; Weight loss ≥5%, % of patients [1, 12]: (23%)**; Weight loss ≥5%, n patients [1, 12]: 85; Weight loss ≥10%, % of patients [1, 12]: 7%; Weight loss ≥10%, n patients [1, 12]: 26; Weight loss ≥15%, % of patients [1, 12]: 2%; Weight loss ≥15%, n patients [1, 12]: 9; Weight loss ≥5%, % of patients [1, 13]: (31%)***; Weight loss ≥5%, n patients [1, 13]: 107; Weight loss ≥10%, % of patients [1, 13]: (10%)***; Weight loss ≥10%, n patients [1, 13]: 36; Weight loss ≥15%, % of patients [1, 13]: 2%; Weight loss ≥15%, n patients [1, 13]: 7; Weight loss ≥5%, % of patients [1, 14]: (31%)*; Weight loss ≥5%, n patients [1, 14]: 52; Weight loss ≥10%, % of patients [1, 14]: 10%; Weight loss ≥10%, n patients [1, 14]: 17; Weight loss ≥15%, % of patients [1, 14]: 5%; Weight loss ≥15%, n patients [1, 14]: 9; Weight loss ≥5%, % of patients [1, 15]: (35%)**; Weight loss ≥5%, n patients [1, 15]: 57; Weight loss ≥10%, % of patients [1, 15]: 12%; Weight loss ≥10%, n patients [1, 15]: 20; Weight loss ≥15%, % of patients [1, 15]: 3%; Weight loss ≥15%, n patients [1, 15]: 5; Weight loss ≥5%, % of patients [1, 16]: 26%; Weight loss ≥5%, n patients [1, 16]: 48; Weight loss ≥10%, % of patients [1, 16]: 9%; Weight loss ≥10%, n patients [1, 16]: 16; Weight loss ≥15%, % of patients [1, 16]: 2%; Weight loss ≥15%, n patients [1, 16]: 4; Weight loss ≥5%, % of patients [1, 17]: (38%)***; Weight loss ≥5%, n patients [1, 17]: 67; Weight loss ≥10%, % of patients [1, 17]: (17%)***; Weight loss ≥10%, n patients [1, 17]: 31; Weight loss ≥15%, % of patients [1, 17]: 3%; Weight loss ≥15%, n patients [1, 17]: 6; Weight loss ≥5%, % of patients [1, 18]: 30%; Weight loss ≥5%, n patients [1, 18]: 27; Weight loss ≥10%, % of patients [1, 18]: 15%; Weight loss ≥10%, n patients [1, 18]: 13; Weight loss ≥15%, % of patients [1, 18]: 4 (4%); Weight loss ≥15%, n patients [1, 18]: 4 (4%); Weight loss ≥5%, % of patients [1, 19]: (42%)**; Weight loss ≥5%, n patients [1, 19]: 32; Weight loss ≥10%, % of patients [1, 19]: 19%; Weight loss ≥15%, % of patients [1, 19]: 4%; Weight loss ≥15%, n patients [1, 19]: 3; Weight decrease ≥ 7%, (%) ([2]; 20 mg, N=570): (9.5) %; Weight decrease ≥ 7%, (%) ([2]; 50 mg, N=545): (14.5)* %; mean weight change ([2]; lanabecestat 20 mg once daily oral, n=27): -1.4 kg; mean weight change ([2]; lanabecestat 50 mg once daily oral, n=20): -2.9 kg; Weight decrease ≥ 7%, (%) ([3]; 20 mg, N=728): (21.2)* %; Weight decrease ≥ 7%, (%) ([3]; 50 mg, N=723): (24.9)* %; mean weight change ([3]; lanabecestat 20 mg once daily oral, n=187): -0.8 kg; mean weight change ([3]; lanabecestat 50 mg once daily oral, n=178): -1.9 kg
